Data on 2 molecules can be found in patent publication US10047031B2, “Organic compounds” (GIVAUDAN SA, priority 2014, dated 2018).

One series concerns primates. To be noted: cited from earlier work.
For the next series, the system named is mice. To be noted: mouse, in vivo; cited from earlier work.
The next series relates to guinea-pigs. To be noted: guinea pig, in vivo; cited from earlier work.
The test system of the next series is rat hepatocytes. As to the kind of experiment: in vitro metabolism in rat hepatocytes in suspension (GC-MS). The class given is in vitro ADME. To be noted: incubated with hepatocytes isolated from rats, 'substantially no' = below limit of detection, i.e. <1%. The text has this: Decrease of Lilial™ and the compound released by the precursor of the present invention, and formation of the corresponding benzoic acid derivative may be analysed by GC-MS.
By “substantially no benzoic acid derivative” is meant that the concentration of said derivative is below the limit of detection, i.e. <1%. As such, the precursor releasing the compound of formula (I) provides perfumers with an eminently suitable surrogate for the valuable yet problematic Lilial™.

As for `CC(C=O)Cc1ccc(C(C)(C)C)cc1` (centres unmarked) [Lilial™, 3-(4-tert-butylphenyl)-2-methylpropanal], the “effects (reproductive toxicity)” value with primates, in the series on mice and with guinea-pigs was “No effects” in each case.
Consider `Cc1cc(CC(C)C)ccc1CCC=O` [compound of formula (I), 3-(4-isobutyl-2-methylphenyl)propanal], for which the “enzymatic degradation to / formation of the corresponding benzoic acid derivative” value with rat hepatocytes was “no, or substantially no”; with rat hepatocytes (listed as compound released by the precursor of the present invention), “not susceptible”.
